The values that follow come from US12343316B2, “Cannabidiol and/or derivatives thereof for use in the treatment of mitochondrial diseases” (U[…] DE BARCELONA, priority 2019, dated 2025).

Structures are written as SMILES.

The term half-life denotes the time needed for the level to fall by half in the phase considered.

The test system of series [1] is Gad2:Ndufs4cKO mice. The series is described as follows: Three-chamber social approach test. Type of series: in vivo, mouse. The conditions noted are these: control mice, CBD 100 mg/kg twice/day. The text has this: Two mouse lines were used in this study: (1) a validated mouse genetic model of MD (Kruse, S. E., et al. Cell Metab. 2008, 7: 312-320; Quintana, A., et al. Proc. Natl. Acad. Sci. USA. 2010, 107: 10996-11001), lacking Ndufs4 constitutively (Ndufs4^−/−, Ndufs4 KO) and wild-type (WT) littermates (Ndufs4^+/+) as controls, and (2) a conditional knockout mouse line lacking Ndufs4 selectively in GABAergic cells (Bolea et al. 2019 (https://elifesciences.org/articles/47163). For the latter, mice expressing cre-recombinase under the control of the Gad2 promoter (Quintana, A., et al. Nat. Neurosci. 2012, 15: 1547-1555) and one floxed Ndufs4 allele (Gad2^cre/+:Ndufs4^lox/+) were bred with mice carrying two floxed Ndufs4 alleles (Ndufs4^lox/lox). Out of all the possible offspring, Gad2^cre/+: Ndufs4^lox/lox mice bear Ndufs4 deficiency selectively in GABAergic neurons. […]
A three-chamber arena was used to assess sociability as previously described (Puighermanal et al, Front Mol Neurosci., 2017, 10:419). […] The time spent sniffing the unfamiliar mouse and the empty wire cage was manually scored. The discrimination index for sociability was calculated as follows: (time exploring unfamiliar mouse—time exploring empty wire cage)/(total exploration time)*100. […]

The conditions of series [2]: rodents; cited from earlier work.
The subject of series [3] is Ndufs4−/− mice. The series is described as follows: Clasping onset in Ndufs4−/− mice. Type of series: in vivo, mouse. The conditions noted are these: CBD 100 mg/kg once daily vs vehicle-treated, p<0.05. The text has this:
(§1) Two mouse lines were used in this study: (1) a validated mouse genetic model of MD (Kruse, S. E., et al. Cell Metab. 2008, 7: 312-320; Quintana, A., et al. Proc. Natl. Acad. Sci. USA. 2010, 107: 10996-11001), lacking Ndufs4 constitutively (Ndufs4^−/−, Ndufs4 KO) and wild-type (WT) littermates (Ndufs4^+/+) as controls, and (2) a conditional knockout mouse line lacking Ndufs4 selectively in GABAergic cells (Bolea et al. 2019 (https://elifesciences.org/articles/47163). For the latter, mice expressing cre-recombinase under the control of the Gad2 promoter (Quintana, A., et al. Nat. Neurosci. 2012, 15: 1547-1555) and one floxed Ndufs4 allele (Gad2^cre/+:Ndufs4^lox/+) were bred with mice carrying two floxed Ndufs4 alleles (Ndufs4^lox/lox). Out of all the possible offspring, Gad2^cre/+: Ndufs4^lox/lox mice bear Ndufs4 deficiency selectively in GABAergic neurons. Mice with Gad2^cre/+:Ndufs4^lox/+ genotype with one functional Ndufs4 allele as well as mice with the Gad2^cre/+:Ndufs4^lox/lox genotype were used as controls.
Clasping behaviour was used as a sign of neurological degeneration (Johnson, S. C., et al. Science. 2013, 342: 1524-1528). Clasping consisted in an inward curling of the spine and a retraction of the forelimbs and/or hindlimbs toward the midline of the body.

For series [4], the system named is Gad2:Ndufs4cKO mice. The series is described as follows: Survival of Gad2:Ndufs4cKO mice (cell type-specific mouse model of Leigh syndrome). Format: in vivo.
Source text: as §1
Given the early onset severe phenotype that results in death at a median age of ˜40 days in Ndufs4^−/− mice, it is difficult to study certain clinical signs that recapitulate some symptoms of the human pathology. […]

Series [5] has as its system Ndufs4−/− mice. The series is described as follows: Survival of Ndufs4−/− mice (mouse model of Leigh syndrome). Type of series: in vivo.
Source text: as §1
Ndufs4 encodes a protein involved in assembly, stability, and activity of complex I of the mitochondrial electron transport chain. Ndufs4^−/− mice display a progressive neurodegenerative phenotype, which resembles the human disease and includes retarded growth rate, weight loss, lethargy, loss of motor skills, and premature death.

The test system of series [6] is Ndufs4−/− mice. As to the kind of experiment: Accelerating rotarod performance in Ndufs4−/− mice. The conditions noted are these: Ndufs4KO mice, CBD 100 mg/kg once daily; postnatal day 30, 40, 50. Format: in vivo, mouse.
Source text: as §1
Rotarod was performed at postnatal day 30, 40, and 50. Mice were placed on a rotating drum that gradually accelerated from 4 rpm to 40 rpm over 300 sec. Each trial ended when a mouse fell off, made one complete backward revolution while hanging on, or reached 5-min. Each mouse was tested in 3 trials/day spaced 20 min apart. The results of the 3 trials were averaged.
For orientation: In the rotarod test animals must keep their balance on a rotating rod.

As to `C=C(C)[C@@H]1CCC(C)=C[C@H]1c1c(O)cc(CCCCC)cc1O` [CBD, (−)-trans-2-p-mentha-l,8-dien-3-yl-5-pentylresorcinol], the “sociability (social interaction)” value in the series with Gad2:Ndufs4cKO mice [1] is “no effect”. For the same compound, in series [2], the half-life is recorded as around 4.5 h. Also, the “appearance (onset) of clasping” value with Ndufs4−/− mice [3] is “significantly delayed”. Besides, the average survival time in the series with Gad2:Ndufs4cKO mice [4] (CBD 100 mg/kg intraperitoneal twice daily from postnatal day 35-40, p<0.0001) stood at 87 days. The “life span (survival)” value was “extended the life span” in the series with Gad2:Ndufs4cKO mice [4] (CBD 100 mg/kg twice daily, log-rank p<0.0001) and “significantly extended the life span” in the series with Ndufs4−/− mice [5] (Ndufs4−/− mice, CBD 100 mg/kg once daily, log-rank p<0.0001). Further, the median survival in the series with Ndufs4−/− mice [5] (Ndufs4KO mice, CBD 100 mg/kg once/day intraperitoneal from postnatal day 24-30) came to 75.5 days. Besides, the “rotarod performance (time to fall off)” value in the series with Ndufs4−/− mice [6] was “delayed the progressive decline”.
